Details of data set [1]: species or system Sprague-Dawley rats. To be noted: rat, in vivo. On the procedure: The devices prepared in Example 2 were evaluated in ovariectomized Sprague-Dawley rats. The rats were ovariectomized 2 weeks prior to testing. On the test day the animals were anesthetized with ether and administered with either 10 ug of 17 B-estradiol in sesame oil [0.2 ml by subcutaneous (S.C.) or ingestion (I.G.) routes] or a soluble device containing an equal amount of estradiol placed buccally. Animals were kept anesthetized for approximately 10 minutes after estradiol administration. Trunk blood was collected at various times thereafter.

The next data set relates to diestrus rat. The data set is described as follows: In-vivo delivery study of histrelin buccal device: induction of ovulation in the diestrus rat. To be noted: for ED50 dose (inducing ovulation): buccal tablet. On the procedure:
The study was designed to measure the ability of the histrelin delivered by the soluble buccal devices of the invention to induce ovulation in the diestrus rat. Devices were prepared by punching 7 mm tablets from the tray containing the lyophilized foam. Each tablet theoretically contained 297 ug of histrelin. Whole, halved and quartered tablets were then placed in the buccal cavity of diestrus rats anesthetized with ether. After 10 minutes the device was absorbed. The following day the rats were sacrificed and the oviducts removed and examined for the presence of ova.

The mark [2] stands for this setting: half buccal tablet, histrelin 150 ug.
The mark [3] stands for this setting: quarter buccal tablet, histrelin 75 ug.
[4] abbreviates: whole buccal tablet, histrelin 300 ug.

Data on 2 compounds can be found in patent publication US5891458A, “Bioerodible device for administering active ingredients” (priority 1997, dated 1999).

Each structure is given as a SMILES string.

With `C[C@]12CC[C@@H]3c4ccc(O)cc4CC[C@H]3[C@@H]1CC[C@@H]2O` [Estradiol, 17 B-estradiol], in data set [1], the “bioavailability of estradiol administered buccally” value was “greater than oral administration but less than administered by injection”.
Consider `CCNC(=O)[C@@H]1CCCN1C(=O)[C@H](CCCNC(=N)N)NC(=O)[C@H](CC(C)C)NC(=O)[C@@H](Cc1cn(Cc2ccccc2)cn1)NC(=O)[C@H](Cc1ccc(O)cc1)NC(=O)[C@H](CO)NC(=O)[C@H](Cc1c[nH]c2ccccc12)NC(=O)[C@H](Cc1cnc[nH]1)NC(=O)[C@@H]1CCC(=O)N1` [Histrelin], for which the “time after which the device was absorbed” value in the data set with diestrus rat (buccal cavity of anesthetized diestrus rats) worked out at 10 min. Also, the “ED50 dose (inducing ovulation)” value in the data set on diestrus rat (per body weight) was approximately 0.3 mg/kg; in the data set with diestrus rat (per rat), “approximately 75 ug/rat”. Also, the “inducing ovulation (result in words)” value in the data set with diestrus rat (buccal tablets) is “effective in inducing ovulation in a dose-dependent manner”. Besides, the “# of Rats Ovulating/Total # of Rats” value with diestrus rat (setting [2]) is 4/5; with diestrus rat (setting [3]), 4/6; with diestrus rat (setting [4]) it was 6/6. Also, the Ova/Rat in the data set with diestrus rat (setting [2]) is 8; in the data set on diestrus rat (setting [3]) it was 6; with diestrus rat (setting [4]) it was 13.
